Assay results published in patent US20120238549A1, “Nuclear Hormone Receptor Modulators” (ABBOTT LABORATORIES, priority 2011, published 2012).

target: T1, Glucocorticoid Receptor (GR) (Homo sapiens, UniProt P04150); test: GR Florescence Polarization Assay (PolarScreen Glucocorticoid Receptor Competitor Assay, Red); settings: Fluorescense polarization binding ranges; competition with fluorescent glucocorticoid, incubated overnight at 4° C.
T1 construct: purchased Invitrogen P2893
T1 sequence (P04150 1-777): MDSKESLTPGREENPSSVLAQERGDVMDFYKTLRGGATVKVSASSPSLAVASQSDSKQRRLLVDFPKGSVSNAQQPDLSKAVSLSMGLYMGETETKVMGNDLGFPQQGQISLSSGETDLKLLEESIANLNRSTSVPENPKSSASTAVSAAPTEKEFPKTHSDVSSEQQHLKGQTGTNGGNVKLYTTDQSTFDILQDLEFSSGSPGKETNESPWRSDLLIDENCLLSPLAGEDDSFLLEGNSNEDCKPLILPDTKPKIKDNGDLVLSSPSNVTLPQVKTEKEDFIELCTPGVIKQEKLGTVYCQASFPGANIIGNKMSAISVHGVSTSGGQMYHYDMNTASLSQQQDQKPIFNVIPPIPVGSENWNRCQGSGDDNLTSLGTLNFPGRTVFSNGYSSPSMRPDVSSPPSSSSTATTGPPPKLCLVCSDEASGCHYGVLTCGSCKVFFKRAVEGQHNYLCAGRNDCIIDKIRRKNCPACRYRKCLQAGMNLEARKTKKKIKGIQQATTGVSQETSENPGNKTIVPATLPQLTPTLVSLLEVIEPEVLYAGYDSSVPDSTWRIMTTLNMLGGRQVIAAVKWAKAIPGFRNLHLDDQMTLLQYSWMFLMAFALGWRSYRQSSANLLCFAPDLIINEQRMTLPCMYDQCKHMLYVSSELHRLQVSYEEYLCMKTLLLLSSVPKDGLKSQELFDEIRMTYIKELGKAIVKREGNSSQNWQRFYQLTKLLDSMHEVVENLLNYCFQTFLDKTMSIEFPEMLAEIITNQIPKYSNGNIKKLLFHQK
Outline: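 Competitive fluorescence polarization using fluorescent glucocorticoid tracer and human GR in kit buffer. Compounds serially diluted 1:4 in DMSO, incubated with tracer and GR overnight at 4 °C before polarization read.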

SMILES	IC50
CC[C@@]1(O)CC[C@@]2(Cc3ccccc3)c3c(cnn3C)CCC[C@H]2C1.CC[C@]1(O)CC[C@]2(Cc3ccccc3)c3c(cnn3C)CCC[C@@H]2C1 [Example 38, (6aS,8R,10aS)-10a-Benzyl-8-ethyl-1-methyl-1,4,5,6,6a,7,8,9,10,10a-decahydro-1,2-diaza-benzo[e]azulen-8-ol; compound with (6aR,8S,10aR)-10a-benzyl-8-ethyl-1-methyl-1,4,5,6,6a,7,8,9,10,10a-decahydro-1,2-diaza-benzo[e]azulen-8-ol]	1000 to 10000 nM
CC[C@@]1(O)CC[C@]2(Cc3ccccc3)c3c(cnn3C)CCC[C@@H]2C1.CC[C@]1(O)CC[C@@]2(Cc3ccccc3)c3c(cnn3C)CCC[C@H]2C1 [Example 39, (6aS,8S,10aS)-10a-Benzyl-8-ethyl-1-methyl-1,4,5,6,6a,7,8,9,10,10a-decahydro-1,2-diaza-benzo[e]azulen-8-ol; compound with (6aR,8R,10aR)-10a-benzyl-8-ethyl-1-methyl-1,4,5,6,6a,7,8,9,10,10a-decahydro-1,2-diaza-benzo[e]azulen-8-ol]	> 10000 nM
CC[C@@]1(O)CC[C@@]2(Cc3ccccc3)c3nn(C)cc3CCC[C@H]2C1.CC[C@]1(O)CC[C@]2(Cc3ccccc3)c3nn(C)cc3CCC[C@@H]2C1 [Example 40, (6aS,8R,10aS)-10a-Benzyl-8-ethyl-2-methyl-2,4,5,6,6a,7,8,9,10,10a-decahydro-1,2-diaza-benzo[e]azulen-8-ol; compound with (6aR,8S,10aR)-10a-benzyl-8-ethyl-2-methyl-2,4,5,6,6a,7,8,9,10,10a-decahydro-1,2-diaza-benzo[e]azulen-8-ol]	> 10000 nM
CC[C@@]1(O)CC[C@]2(Cc3ccccc3)c3nn(C)cc3CCC[C@@H]2C1.CC[C@]1(O)CC[C@@]2(Cc3ccccc3)c3nn(C)cc3CCC[C@H]2C1 [Example 41, (6aS,8S,10aS)-10a-benzyl-8-ethyl-2-methyl-2,4,5,6,6a,7,8,9,10,10a-decahydro-1,2-diaza-benzo[e]azulen-8-ol; compound with (6aR,8R,10aR)-10a-benzyl-8-ethyl-2-methyl-2,4,5,6,6a,7,8,9,10,10a-decahydro-1,2-diaza-benzo[e]azulen-8-ol]	> 10000 nM
Cc1ncccc1NC(=O)c1ccc2c(c1)CCC[C@H]1C[C@@](O)(c3ccccc3)[C@H](O)C[C@@]21Cc1ccccc1 [Example 43, (7aS,9R,10R,11aR)-11a-Benzyl-9,10-dihydroxy-9-phenyl-6,7,7a,8,9,10,11,11a-octahydro-5H-dibenzo[a,c]cycloheptene-3-carboxylic acid (2-methyl-pyridin-3-yl)-amide; compound with (7aR,9S,10S,11aS)-11a-benzyl-9,10-dihydroxy-9-phenyl-6,7,7a,8,9,10,11,11a-octahydro-5H-dibenzo[a,c]cycloheptene-3-carboxylic acid (2-methyl-pyridin-3-yl)-amide]	100 to 1000 nM
CC[C@]1(O)CC[C@]2(CC)c3ccc(C(=O)Nc4cccnc4C)cc3CCC[C@@H]2C1 [Example 46]	100 to 1000 nM
CC[C@@]1(O)CC[C@@]2(CC)c3ccc(C(=O)Nc4cccnc4C)cc3CCC[C@H]2C1 [Example 47]	< 100 nM
CC[C@]12CC[C@@](O)(CC(C)C)C[C@H]1CCCc1cc(C(=O)Nc3cccnc3C)ccc12 [Example 48]	100 to 1000 nM
CC[C@@]12CC[C@](O)(CC(C)C)C[C@@H]1CCCc1cc(C(=O)Nc3cccnc3C)ccc12 [Example 49]	< 100 nM
CC[C@]12CC[C@@](O)(CC3CC3)C[C@H]1CCCc1cc(C(=O)Nc3cccnc3C)ccc12 [Example 50]	100 to 1000 nM
CC[C@@]12CC[C@](O)(CC3CC3)C[C@@H]1CCCc1cc(C(=O)Nc3cccnc3C)ccc12 [Example 51]	< 100 nM
Cc1ncccc1NC(=O)c1ccc2c(c1)CCC[C@H]1C[C@@](O)(CC#N)CC[C@@]21Cc1ccccc1 [Example 66]	< 100 nM
Cc1ncccc1NC(=O)c1ccc2c(c1)CCC[C@@H]1C[C@](O)(CC#N)CC[C@]21Cc1ccccc1 [Example 67]	100 to 1000 nM
CC[C@@]1(O)CC[C@@]2(Cc3ccccc3)c3ccc(C(=O)Nc4cnc(C)nc4C)cc3CCC[C@H]2C1 [Example 68, (7aS,9R,11aS)-11a-Benzyl-9-ethyl-9-hydroxy-6,7,7a,8,9,10,11,11a-octahydro-5H-dibenzo[a,c]cycloheptene-3-carboxylic acid (2,4-dimethyl-pyrimidin-5-yl)-amide]	< 100 nM
CC[C@@]1(O)CC[C@@]2(Cc3ccccc3)c3ccc(C(=O)Nc4ncc(C)nc4C)cc3CCC[C@H]2C1 [Example 69]	< 100 nM
CC[C@@]1(O)CC[C@@]2(Cc3ccccc3)c3ccc(C(=O)Nc4ccncc4C)cc3CCC[C@H]2C1 [Example 70]	< 100 nM
CC[C@@]1(O)CC[C@@]2(Cc3ccccc3)c3ccc(C(=O)Nc4cnccc4C)cc3CCC[C@H]2C1 [Example 71]	< 100 nM
CC[C@@]1(O)CC[C@@]2(Cc3ccccc3)c3ccc(C(=O)Nc4ccc(C)nc4C)cc3CCC[C@H]2C1 [Example 72]	< 100 nM

SMILES	IC50
CC[C@@]1(O)CC[C@@]2(Cc3ccccc3)c3ccc(C(=O)Nc4ncccc4C)cc3CCC[C@H]2C1 [Example 73]	< 100 nM
CC[C@@]1(O)CC[C@@]2(Cc3ccccc3)c3ccc(C(=O)Nc4nncs4)cc3CCC[C@H]2C1 [Example 74]	100 to 1000 nM
CC[C@@]1(O)CC[C@@]2(Cc3ccccc3)c3ccc(C(=O)Nc4ccnn4C)cc3CCC[C@H]2C1 [Example 75]	< 100 nM
CC[C@@]1(O)CC[C@@]2(Cc3ccccc3)c3ccc(C(=O)Nc4cc(C)nn4C)cc3CCC[C@H]2C1 [Example 76]	< 100 nM
CC[C@@]1(O)CC[C@@]2(Cc3ccccc3)c3ccc(C(=O)Nc4nnnn4C)cc3CCC[C@H]2C1 [Example 78]	< 100 nM
CC[C@@]1(O)CC[C@@]2(Cc3ccccc3)c3ccc(C(=O)Nc4cc(C)[nH]n4)cc3CCC[C@H]2C1 [Example 79]	< 100 nM
CC[C@@]1(O)CC[C@@]2(Cc3ccccc3)c3ccc(C(=O)NCc4cccnc4C)cc3CCC[C@H]2C1 [Example 83, (7aS,9R,11aS)-11a-Benzyl-9-ethyl-9-hydroxy-6,7,7a,8,9,10,11,11a-octahydro-5H-dibenzo[a,c]cycloheptene-3-carboxylic acid (2-methyl-pyridin-3-ylmethyl)-amide]	< 100 nM
CC[C@@]1(O)CC[C@@]2(Cc3ccccc3)c3ccc(C(=O)NCCN4CCOCC4)cc3CCC[C@H]2C1 [Example 84]	> 10000 nM
CC[C@@]1(O)CC[C@@]2(Cc3ccccc3)c3ccc(C(=O)NC4=NC(=O)CN4C)cc3CCC[C@H]2C1 [Example 85]	< 100 nM
CC[C@@]1(O)CC[C@@]2(Cc3ccccc3)c3ccc(C(=O)Nc4ccc(-c5ccn[nH]5)nc4C)cc3CCC[C@H]2C1 [Example 86, (7aS,9R,11aS)-11a-Benzyl-9-ethyl-9-hydroxy-6,7,7a,8,9,10,11,11a-octahydro-5H-dibenzo[a,c]cycloheptene-3-carboxylic acid [2-methyl-6-(2H-pyrazol-3-yl)-pyridin-3-yl]-amide]	< 100 nM
CC[C@@]1(O)CC[C@@]2(Cc3ccccc3)c3ccc(C(=O)Nc4ccc(-c5ccn[nH]5)nc4C)cc3CCC[C@H]2C1 [Example 87, (7aS,9R,11aS)-11a-Benzyl-9-ethyl-9-hydroxy-6,7,7a,8,9,10,11,11a-octahydro-5H-dibenzo[a,c]cycloheptene-3-carboxylic acid [2-methyl-6-(2H-pyrazol-3-yl)-pyridin-3-yl]-amide]	< 100 nM
CC[C@@]1(O)CC[C@@]2(Cc3ccccc3)c3ccc(C(=O)Nc4ccc(-c5cn[nH]c5)nc4C)cc3CCC[C@H]2C1 [Example 88]	< 100 nM
CC[C@@]1(O)CC[C@@]2(Cc3ccccc3)c3ccc(C(=O)N(C)c4cccnc4C)cc3CCC[C@H]2C1 [Example 89, (7aS,9R,11aS)-11a-Benzyl-9-ethyl-9-hydroxy-6,7,7a,8,9,10,11,11a-octahydro-5H-dibenzo[a,c]cycloheptene-3-carboxylic acid methyl-(2-methyl-pyridin-3-yl)-amide]	100 to 1000 nM
CCOC[C@@]1(O)CC[C@@]2(Cc3ccccc3)c3ccc(C(=O)Nc4cccnc4C)cc3CCC[C@H]2C1 [Example 93]	< 100 nM
CCCOC[C@@]1(O)CC[C@@]2(Cc3ccccc3)c3ccc(C(=O)Nc4cccnc4C)cc3CCC[C@H]2C1 [Example 98]	< 100 nM
CCCOC[C@]1(O)CC[C@]2(Cc3ccccc3)c3ccc(C(=O)Nc4cccnc4C)cc3CCC[C@@H]2C1 [Example 99]	1000 to 10000 nM
Cc1ncccc1NC(=O)c1ccc2c(c1)CCC[C@@H]1C[C@@](O)(C(F)(F)F)CC[C@@]21Cc1ccccc1 [Example 106, (7aR,9R,11aS)-11a-Benzyl-9-hydroxy-9-trifluoromethyl-6,7,7a,8,9,10,11,11a-octahydro-5H-dibenzo[a,c]cycloheptene-3-carboxylic acid (2-methyl-pyridin-3-yl)-amide]	< 100 nM
